Experimental data reported in patent US8053415B2, “Compounds having RD targeting motifs” (Washington University in St. Louis, priority 2005, dated 2011).
“Also recorded” adds a separate entry of the source. Like-named read-outs stand apart in the source and are kept apart here. Where a SMILES comes first, the peptide text is derived from it. Where no end group is shown, it is not given here.

How the values were obtained:
[1] = biological target: T1, purified human αvβ3 integrin protein (Homo sapiens, UniProt P05106+P06756); assay: Competitive αvβ3 integrin receptor binding assay with 125I-echistatin tracer (Example 2)
T1 construct: purchased Chemicon International, Inc. (Temecula, Calif.)
Protocol: The binding affinities were measured based on the competitive binding between purified αvβ3 integrin (ABI) and peptide ligands. Echistatin is a polypeptide that binds irreversibly with high affinity and specificity to ABI. ^125I-echistatin was used as a tracer in ABI binding assays.
Receptor binding assays were performed by using purified human αvβ3 integrin protein from Chemicon International, Inc. (Temecula, Calif.). Assays were carried out using the Millipore Duropore membrane 96-well plates and the Millipore MultiScreen system (Bedford, Mass.). The 96-well membrane plate was blocked with 0.1% Polythylenimine blocking solution overnight at 4° C. ^125I-echistatin (50 nmol/L) was added to the binding buffer (50 mM Tris-HCl, pH 7.4, 100 mM NaCl, 2 mM CaCl2, 1 mM MgCl2, 1 mM MnCl2, 1% BSA) containing integrin protein (50 ng per well in 96-well membrane plate) and ligands in a total volume of 200 μL per well. The concentration range of ligand was between 0.01 μM and 100 μM. The mixtures were incubated for 2 h at room temperature, the ABI was then filtered by centrifugation at 1500 g and washed three times with 0.20 mL of ice-cold binding buffer. The filters containing radioactivity bound ABI were removed using a punch apparatus and counted using a Packard Cobra II Auto-gamma counter (Meriden, Conn.). […] Radiolabeling of ^125I-echistatin (Amersham Biosciences, Piscataway, N.J.) was carried out in a mixture of 0.25% BSA, 5.0% lactose, 0.21% citric acid and aprotinin (0.9 TIU/ml).

A549 tumor = assay: In vivo fluorescence optical imaging and ex vivo organ distribution in A549 tumor-bearing nude mice; conditions: for uptake / retention in A549 tumor: 0.3 μmol per kg via lateral tail vein, fluorescence imaging
Protocol: All in vivo studies were performed in compliance with the Washington University in St Louis Animal Study Committee's requirements for the care and use of laboratory animals in research. Nude mice (18-22 g) were anesthetized with xylazine/ketamine cocktail via intraperitoneal injection and placed in a supine position. The mice were injected subcutaneously with A549 cells (1×10^6) in the lower back of the mice. Tumor masses were palpable at 5-7 days post implant, which reached 5 mm in 10-15 days. Prior to injection of the probe, the mice were anesthetized as described above. A 29-gauge needle was used to inject the probes into the mouse via the lateral tail vein. The molecular probe (100 μL) was injected via the lateral tail vein at 0.3 μmol per kg of body weight. […] [SEQ ID NO:1] were constituted in a vial, and doses of 0.3 μmol per kg of body weight were injected into the A549 tumor-bearing mice.
A non-invasive in vivo continuous wave fluorescence imaging apparatus was used to visualize the distribution and preferential tissue uptake of the cypate-peptide molecular beacons in the nude mice (Achilefu (2004) Technol. Cancer Res. Treat. 3:393-409, incorporated herein by reference). Light from two laser diodes of nominal wavelength 780 nm and nominal power of 50 mW was launched into a fiber optic bundle. Two laser diodes were used to produce as much uniform illumination of the whole animal or organ parts as possible. The nominal 50 mW of incident power was reduced to about 44 mW at the output of the fiber optic bundle. A de-focusing lens in position after the bundle expanded the beam such that nearly the whole animal was illuminated. A Photometrics CCD camera (16 bit, 1024×1024 pixel, back illuminated, thermoelectric Peltier cooled with forced air) was used to capture the emitted photons. An interference filter (830 nm) was mounted in front of the CCD camera input lens such that only emitted fluorescent light from the contrast agent was imaged. Real-time acquisition, display and data processing software (WinView/32) was used to obtain the optical image. The samples were dissolved in 20% aqueous DMSO and animals were injected with doses of 0.3 μmol/kg body weight via the lateral tail vein. Injected volumes were 100 μL for each mouse. Data analysis consisted of subtracting (pixel by pixel) the pre-injection image from the post injection images, and displaying the false color results. Integration of the relative fluorescence intensities of tumor vs. surrounding tissues indicated the extent of selective uptake of the contrast agent. At the completion of the study, the mice were euthanized and some organ parts were excised and rinsed with water. The tissues were placed under the CCD camera and the fluorescence emission from each organ was measured after excitation with the 780 nm laser sources. Tissue parts, instead of whole organs, were used to minimize problems associated with depth-dependent non-linear fluorescence emission. A statistical program in the WinView package was used to estimate the mean fluorescence intensity per organ part.
In vivo optical imaging studies using the cypate-peptide optical probes were performed and analyzed as described above in Example 1. […]

A549 cells = assay: Cellular internalization and blocking studies by fluorescence microscopy (Example 1); conditions: for internalization in A549 cells: 1 μM
[2] = Absorption and emission spectral properties in 20% aqueous DMSO; format: physicochemical
Protocol: The spectral properties of cypate and the cypate-peptide conjugates were determined in 20% aqueous DMSO, which solubilizes all the compounds. […] Absorbance measurements were performed with a Beckman Coulter DU 640 spectrophotometer. The fluorescence spectra were recorded on Fluorolog-3 fluorometer (HORIBA Jobin Yvon Inc., Edison, N.J.). To prepare the stock solutions, a high precision analytical balance was used to weigh >2 mg of each compound, which was dissolved in DMSO. The DMSO solutions were then diluted with water to obtain a final solution of 20% aqueous DMSO. An aliquot (known volume) of the solution was transferred to a cuvette with 1 μL precision micropipettes and diluted with 20% aqueous DMSO solvent mixture to give a working solution that absorbs at <1.0 absorbance unit. Aliquots of the working solution were diluted with 20% aqueous DMSO and used to determine the molar absorptivity of each compound. For fluorescence measurements, probe solutions with 0.1 absorbance units were used to minimize inner filter effects.
Previous studies have shown that this solvent mixture boosts fluorescence intensity and is well tolerated by rodents. Additionally, the dyes and their peptide conjugates are soluble in this solvent mixture, providing a common medium for spectral measurements.
Absorbance spectra were measured on a Beckman Coulter DU 640 UV-Visible spectrophotometer. Fluorescence spectra were recorded on a HORIBA Jobin Yvon Fluorolog-3 fluorometer. Stock solutions (1.0 mM) of the conjugates were prepared by dissolving each sample in 80% aqueous DMSO. UV-Vis and fluorescence measurements were carried out by adding 5.0 μL of the stock solutions via a micropipette into 3 mL of 20% aqueous DMSO in a quartz cuvette.

Compound: CC(C)[C@@H]1NC(=O)[C@@H](Cc2ccccc2)NC(=O)[C@H](CC(=O)O)NC(=O)CNC(=O)[C@H](CCCNC(=N)N)NC(=O)[C@H](CCCCN)NC1=O [Cyclo(DPhe-Val-Lys-Arg-Gly-Asp)-OH] (HELM PEPTIDE1{R.G.D.[dF].V.K}$PEPTIDE1,PEPTIDE1,1:R1-6:R2$$$V2.0)
- IC50 ([1]; Table 3, read-out: IC50): 1890 nM

Compound: CC1(C)C(/C=C/C=C/C=C/C=C2/N(CCC(=O)O)c3ccc4ccccc4c3C2(C)C)=[N+](CCC(=O)[O-])c2ccc3ccccc3c21 [Cypate, cypate, reference compound]
- uptake / retention in A549 tumor (A549 tumor): not retained in the tumor; also recorded: None of the three non-ABI-specific probes were retained in the A549 tumor tissue
- time of clearance from blood by the liver (A549 tumor; after injection): ≤ 4 h
- internalization in A549 cells (A549 cells; 37° C.): did not internalize
- ^abεmax [2]: 244,400 cm^−1Mol^−1
- ^abλmax [2]: 786 nm
- ^emλmax [2]: 811 nm

Compound: CC1(C)C(=CC=CC=CC=CC2=[N+](CCC(=O)O)c3ccc4ccccc4c3C2(C)C)N(CCC(=O)N[C@H]2CSSC[C@@H](C(N)=O)NC(=O)[C@H](CC(=O)O)NC(=O)CNC(=O)[C@H](CCCNC(=N)N)NC2=O)c2ccc3ccccc3c21 [Cypate-cyclo(CRGDC)-NH2] (HELM PEPTIDE1{[CC1(C)C(/C=C/C=C/C=C/C=C2/N(CCC(=O)[*:2])c3ccc4ccccc4c3C2(C)C)=[N+](CCC(=O)O)c2ccc3ccccc3c21].C.R.G.D.C.[am]}$PEPTIDE1,PEPTIDE1,2:R3-6:R3$$$V2.0)
- IC50 ([1]; Table 2, read-out: IC50 (αvβ3 integrin binding affinities)): 4600 nM

Compound: CC(C)[C@H](NC(=O)[C@@H](NC(=O)[C@@H]1CSSC[C@H](NC(=O)[C@H](N)Cc2ccccc2)C(=O)N[C@@H](Cc2ccc(O)cc2)C(=O)N[C@H](Cc2c[nH]c3ccccc23)C(=O)N[C@@H](CCCCN)C(=O)N[C@@H]([C@@H](C)O)C(=O)N1)[C@@H](C)O)C(=O)N[C@@H](CCCNC(=N)N)C(=O)NCC(=O)N[C@@H](CC(=O)O)C(N)=O [H-DPhe-Cyclo(Cys-Tyr-DTrp-Lys-Thr-Cys)-Thr-Val-Arg-Gly-Asp-NH2] (HELM PEPTIDE1{[dF].C.Y.[dW].K.T.C.T.V.R.G.D.[am]}$PEPTIDE1,PEPTIDE1,2:R3-7:R3$$$V2.0)
- IC50 ([1]; Table 3, read-out: IC50): 722 nM

Compound: CC1(C)C(/C=C/C=C/C=C/C=C2\N(CCCCS(=O)(=O)O)c3ccc4ccccc4c3C2(C)C)=[N+](CCCCS(=O)(=O)[O-])c2ccc3ccccc3c21 [indocyanine green, reference compound]
- uptake / retention in A549 tumor (A549 tumor): None of the three non-ABI-specific probes were retained in the A549 tumor tissue

Compound: Cypate-3-GRDSPK ({Cypate‑3}-GRDSPK; listed as Homo sapiens) [Cyp-3-GRD]
- internalization in A549 cells (A549 cells; 37° C.): internalized
- cellular localization at 4° C. (A549 cells; A549 cells incubated at 4° C.): remained in the peripheral region of the cell membrane
- translocation into the nucleus (A549 cells; A549 cells, 37° C.): did not translocate into the nucleus
- ^abεmax [2]: 128,538 cm^−1Mol^−1
- ^abλmax [2]: 684 nm
- ^emλmax [2]: 703 nm

Compound: GRDSPK (listed as Homo sapiens) [GRD peptide]
- blocking of Cyp-GRD uptake in the tumor by co-injection (A549 tumor; equimolar, 0.3 μmol/kg body weight, 24 h post injection): unable to block

Compound: cytate [reference compound]
- uptake / retention in A549 tumor (A549 tumor): None of the three non-ABI-specific probes were retained in the A549 tumor tissue
